According to ChEMBL document CHEMBL1201862, “PubChem BioAssay data set” (2004):
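Step 1: Grow cells in 96-well plates. Step 2: Expose to compound for 48 hours at 5 concentrations. Step 3: Interpolate endpoints linearly; if unreached, use highest concentration. At the GI50, growth is halved.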 The source made the active and inactive calls. Rule as the data show it: active = GI50 up to about 1.1 µM and inactive = higher.

Columns and labels:
Experiment in all cases: NCI anticancer screen, dose series, 48 h
CAKI-1 = tested on: CAKI-1
COLO 205 = tested on: COLO 205
EKVX = tested on: EKVX
HOP-62 = tested on: HOP-62
HOP-92 = tested on: HOP-92
Malme-3M = tested on: Malme-3M
NCI-H23 = tested on: NCI-H23
OVCAR-4 = tested on: OVCAR-4
OVCAR-8 = tested on: OVCAR-8
SF-268 = tested on: SF-268
SK-MEL-2 = tested on: SK-MEL-2
SK-MEL-5 = tested on: SK-MEL-5
SN12C = tested on: SN12C
SR = tested on: SR
U-251 = tested on: U-251
UO-31 = tested on: UO-31
HCC 2998 = tested on: HCC 2998
RPMI-8226 = tested on: RPMI-8226

Measured: GI50

NC1C2(CCCCCC2)NC(=O)C12CCCCCC2 (stereo unspecified)
inactive: CAKI-1 > 100 µM | COLO 205 > 100 µM | EKVX > 100 µM | HOP-62 > 100 µM | HOP-92 > 100 µM | Malme-3M > 100 µM | NCI-H23 > 100 µM | OVCAR-4 > 100 µM | OVCAR-8 > 100 µM | SF-268 > 100 µM | SK-MEL-2 > 100 µM | SK-MEL-5 > 100 µM | SN12C > 100 µM | SR > 100 µM | U-251 > 100 µM | UO-31 > 100 µM

O=C(Cc1ccccc1)NN1C(=O)C(Cl)C1c1ccccc1O (stereo unspecified)
inactive: CAKI-1 40.2 µM | COLO 205 16.4 µM | EKVX 4.07 µM | HCC 2998 20.3 µM | HOP-62 12.6 µM | Malme-3M 19.5 µM | NCI-H23 20.4 µM | OVCAR-4 8.81 µM | OVCAR-8 22.4 µM | RPMI-8226 9.84 µM | SF-268 13.5 µM | SK-MEL-2 17.8 µM | SN12C 27.9 µM | SR 3.98 µM | U-251 12.8 µM | UO-31 4.54 µM

Cn1cc(C(=O)C[n+]2ccccc2)c2ccccc21
inactive: CAKI-1 30.3 µM | COLO 205 52.2 µM | EKVX 11.9 µM | HCC 2998 > 100 µM | HOP-62 83.8 µM | Malme-3M 69.7 µM | NCI-H23 > 100 µM | OVCAR-4 46.1 µM | OVCAR-8 58.6 µM | RPMI-8226 > 100 µM | SK-MEL-2 > 100 µM | SK-MEL-5 > 100 µM | SN12C 62.4 µM | SR > 100 µM | UO-31 > 100 µM

Oc1c(Cl)c2nccnc2c2ccccc12
inactive: COLO 205 > 100 µM | EKVX > 100 µM | HCC 2998 > 100 µM | HOP-92 > 100 µM | Malme-3M > 100 µM | NCI-H23 > 100 µM | OVCAR-4 > 100 µM | OVCAR-8 > 100 µM | RPMI-8226 > 100 µM | SF-268 > 100 µM | SK-MEL-2 > 100 µM | SK-MEL-5 > 100 µM | SN12C > 100 µM | U-251 > 100 µM | UO-31 > 100 µM

N#C[C@]12CC3(CC[C@H]1CC1(C2)OCCO1)OCCO3
inactive: CAKI-1 > 100 µM | COLO 205 > 100 µM | HCC 2998 > 100 µM | HOP-62 > 100 µM | Malme-3M > 100 µM | OVCAR-4 > 100 µM | OVCAR-8 > 100 µM | RPMI-8226 > 100 µM | SF-268 > 100 µM | SK-MEL-2 > 100 µM | SK-MEL-5 > 100 µM | SN12C > 100 µM | SR > 100 µM | U-251 > 100 µM | UO-31 > 100 µM

Cc1[nH]c2ccccc2c1C(=O)CC1(O)C(=O)Nc2c(Cl)cc(Cl)cc21 (stereo unspecified)
inactive: CAKI-1 40.8 µM | COLO 205 30.1 µM | HCC 2998 51.6 µM | HOP-62 46.9 µM | Malme-3M 18.9 µM | NCI-H23 19.5 µM | OVCAR-4 9.75 µM | OVCAR-8 24.3 µM | RPMI-8226 25.5 µM | SF-268 25.3 µM | SK-MEL-2 28.6 µM | SK-MEL-5 17.2 µM | SN12C 24.8 µM | SR 28.4 µM | U-251 30.1 µM | UO-31 26.3 µM

COc1ccc2nc3cc(Cl)ccc3c(SCC(=O)Nc3ccccc3-c3ccccc3NC(=O)CSc3c4ccc(Cl)cc4nc4ccc(OC)cc34)c2c1
inactive: CAKI-1 > 100 µM | COLO 205 > 100 µM | EKVX > 100 µM | HCC 2998 > 100 µM | HOP-62 > 100 µM | HOP-92 > 100 µM | Malme-3M > 100 µM | NCI-H23 > 100 µM | OVCAR-4 > 100 µM | OVCAR-8 > 100 µM | RPMI-8226 > 100 µM | SF-268 > 100 µM | SK-MEL-2 > 100 µM | SK-MEL-5 > 100 µM | SN12C > 100 µM | U-251 > 100 µM | UO-31 > 100 µM

O=C1NC(=O)c2c1n(Cc1ccccc1)c(=O)n2Cc1ccccc1
inactive: CAKI-1 > 100 µM | COLO 205 > 100 µM | EKVX > 100 µM | HCC 2998 > 100 µM | HOP-62 > 100 µM | HOP-92 25.8 µM | Malme-3M > 100 µM | NCI-H23 > 100 µM | OVCAR-4 > 100 µM | OVCAR-8 > 100 µM | RPMI-8226 53.2 µM | SF-268 > 100 µM | SK-MEL-2 > 100 µM | SK-MEL-5 > 100 µM | SN12C > 100 µM | U-251 > 100 µM | UO-31 > 100 µM

C[N+]1=c2c3cccc4cccc(c(=O)n2CCC1)c43
inactive: CAKI-1 31 µM | COLO 205 16.2 µM | EKVX 24.9 µM | HOP-62 31 µM | HOP-92 28.1 µM | Malme-3M 18 µM | NCI-H23 19 µM | OVCAR-4 18.9 µM | OVCAR-8 17.7 µM | RPMI-8226 19.6 µM | SF-268 23.5 µM | SK-MEL-2 16.6 µM | SK-MEL-5 17.9 µM | SN12C 21 µM | SR 18.2 µM | U-251 29.9 µM | UO-31 17.9 µM

COC(=O)c1c(O)ccc(O)c1C(C(C)=O)C(C)=O
inactive: CAKI-1 > 100 µM | COLO 205 > 100 µM | EKVX > 100 µM | HCC 2998 > 100 µM | HOP-62 > 100 µM | HOP-92 > 100 µM | Malme-3M > 100 µM | NCI-H23 > 100 µM | OVCAR-4 > 100 µM | OVCAR-8 > 100 µM | RPMI-8226 > 100 µM | SF-268 > 100 µM | SK-MEL-2 > 100 µM | SK-MEL-5 > 100 µM | SN12C > 100 µM | U-251 > 100 µM | UO-31 > 100 µM

Cc1noc2c1C(=O)CCC2
inactive: CAKI-1 > 100 µM | COLO 205 > 100 µM | EKVX > 100 µM | HOP-92 > 100 µM | Malme-3M > 100 µM | OVCAR-4 > 100 µM | OVCAR-8 > 100 µM | RPMI-8226 > 100 µM | SF-268 > 100 µM | SK-MEL-2 > 100 µM | SN12C > 100 µM | SR > 100 µM | UO-31 > 100 µM

CNC1=Nc2ccc(Cl)cc2C(c2ccccc2)=NN1C
inactive: CAKI-1 28.5 µM | COLO 205 > 100 µM | EKVX > 100 µM | HCC 2998 24.9 µM | HOP-62 > 100 µM | HOP-92 27.6 µM | Malme-3M 42.9 µM | NCI-H23 > 100 µM | OVCAR-4 > 100 µM | OVCAR-8 > 100 µM | RPMI-8226 31.3 µM | SF-268 57.9 µM | SK-MEL-2 73.5 µM | SK-MEL-5 49.1 µM | SN12C > 100 µM | U-251 > 100 µM | UO-31 35.5 µM

C[N+]12c3ccccc3O[B-]1(c1ccccc1)Oc1ccccc12 (stereo unspecified)
inactive: CAKI-1 63.1 µM | COLO 205 63.8 µM | EKVX 84.5 µM | HOP-62 72.1 µM | HOP-92 > 100 µM | Malme-3M 40 µM | NCI-H23 52.8 µM | OVCAR-4 31.6 µM | OVCAR-8 28.6 µM | RPMI-8226 37.4 µM | SF-268 20.3 µM | SK-MEL-5 36.2 µM | SN12C 31.9 µM | SR 10.9 µM | U-251 16.6 µM
